Test results taken from patent publication US10624946B2, “Treating liver diseases” (Mayo Foundation for Medical Education and Research, priority 2005, dated 2020).

Legend:
PCK rats [1] = assay: Hepatic and renal laboratory parameters in PCK rats treated with octreotide; settings: for Alkaline Phosphatase / Aspartate Aminotransferase / Bilirubin Direct / Bilirubin Total / Blood Urea Nitrogen / Creatinine / Protein total: Octreotide (10 μg)
Experimental: (§1) Three week old PCK rats (n=60) were divided into five groups (three animals of each gender per treatment group). Each group was divided into two subgroups. […] Each animal was injected intraperitoneally every 12 hours. […] The control groups received an equal volume of saline.
(§2) At 4, 8, 12 and 16 weeks of age, animals were anesthetized with pentobarbital (50 mg/kg body weight, ip). Blood was collected by cardiac puncture for determination of hepatic and renal laboratory parameters and cAMP levels. Liver and kidney tissue sections (5 μm) were stained with hematoxylin-eosin and picrosirius red for analysis using light microscopy. Renal and hepatic fibrosis and cystic scores were measured using Meta-Morph software (Universal Imaging, West Chester, Pa., USA), a light microscope with a color digital camera (Nikon DXM 1200), and a Pentium IBM-compatible computer (Del OptiPlex). To measure the volume of a cyst or fibrosis, a colored threshold was applied at a level that allowed cystic tissue to be distinguished from non-cystic tissue and picrosirius red-positive stained fibrotic tissue to be distinguished from the background. The cystic and fibrotic scores were expressed as a percentage of total tissue.

PCK rats [2] = assay: Body, liver and kidney weight in PCK rats treated with octreotide; type: in vivo, rat
Experimental: (§3) Each group was divided into two subgroups. […] Each animal was injected intraperitoneally every 12 hours. […] The control groups received an equal volume of saline.

PCK rats [3] = assay: Hepatic and renal cyst volume and fibrosis score in PCK rats treated with octreotide; type: in vivo, rat
Experimental: as §1, §2

SSTR3 = SSTR3 (Homo sapiens, UniProt P32745); settings: Froidevaux and Eberle 2002; cited from earlier work
Sequence of SSTR3 (P32745 whole entry, species assumed): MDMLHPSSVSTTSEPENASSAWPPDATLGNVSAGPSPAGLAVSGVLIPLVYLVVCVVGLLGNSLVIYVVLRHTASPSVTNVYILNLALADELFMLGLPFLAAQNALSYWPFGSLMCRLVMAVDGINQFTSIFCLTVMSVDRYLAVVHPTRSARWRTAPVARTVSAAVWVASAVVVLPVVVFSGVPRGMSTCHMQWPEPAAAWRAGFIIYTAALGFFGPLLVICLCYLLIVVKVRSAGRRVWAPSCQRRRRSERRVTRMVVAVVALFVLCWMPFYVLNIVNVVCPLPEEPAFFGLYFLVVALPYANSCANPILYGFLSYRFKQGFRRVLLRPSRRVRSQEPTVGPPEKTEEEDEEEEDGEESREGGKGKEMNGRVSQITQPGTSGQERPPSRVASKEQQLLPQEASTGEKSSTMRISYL

[4] = target: somatostatin receptor 2 (SSTR2) (Homo sapiens, UniProt P30874); settings: Froidevaux and Eberle 2002; cited from earlier work
Sequence of somatostatin receptor 2 (SSTR2) (P30874 whole entry, species assumed): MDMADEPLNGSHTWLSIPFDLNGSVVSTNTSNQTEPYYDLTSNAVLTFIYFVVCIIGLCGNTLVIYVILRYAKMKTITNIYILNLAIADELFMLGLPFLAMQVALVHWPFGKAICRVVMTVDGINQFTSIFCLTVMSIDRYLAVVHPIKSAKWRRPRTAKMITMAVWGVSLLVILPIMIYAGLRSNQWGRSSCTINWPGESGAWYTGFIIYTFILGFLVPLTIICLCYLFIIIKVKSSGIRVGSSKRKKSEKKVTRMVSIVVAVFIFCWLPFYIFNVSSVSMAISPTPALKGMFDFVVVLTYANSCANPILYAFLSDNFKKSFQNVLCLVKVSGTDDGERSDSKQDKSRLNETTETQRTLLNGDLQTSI

[5] = test system: cAMP levels in bile ducts and serum of PCK rats; assay: cAMP levels in freshly isolated bile ducts and serum of PCK rats treated with octreotide; type: in vivo, rat
Experimental: The concentration of cAMP was measured in freshly isolated and cultured bile ducts and in serum. Serum was diluted 1:10 before assay. Cultured bile ducts were first released from the gel by adding 0.4 mL of high-activity type XI collagenase for 45 min. at 37° C. and washing twice with medium. cAMP concentrations were determined using the Bridge-It™ cAMP designer assay (Mediomics, LLC, St. Louis, Mo.). Results were expressed as pmol per μg of DNA. The amount of DNA in a single IBDU was determined using the DNeasy Tissue Kit (QIAGEN Inc., Valencia, Calif.).
as §3

[6] = Female PCK rats, Group I, 4 weeks of treatment
[7] = Female PCK rats, Group II, 8 weeks of treatment
[8] = Female PCK rats, Group III, 12 weeks of treatment
[9] = Female PCK rats, Group IV, 16 weeks of treatment
[10] = Female PCK rats, HD, 4 weeks of treatment
[11] = Male PCK rats, Group I, 4 weeks of treatment
[12] = Male PCK rats, Group II, 8 weeks of treatment
[13] = Male PCK rats, Group III, 12 weeks of treatment
[14] = Male PCK rats, Group IV, 16 weeks of treatment
[15] = Male PCK rats, HD, 4 weeks of treatment
[16] = 100 μg/kg, 4 weeks, vs 10 μg/kg
[17] = Female PCK rats, Group I, 4 weeks of treatment, Octreotide (10 μg)
[18] = Female PCK rats, Group II, 8 weeks of treatment, Octreotide (10 μg)
[19] = Female PCK rats, Group III, 12 weeks of treatment, Octreotide (10 μg)
[20] = Female PCK rats, Group IV, 16 weeks of treatment, Octreotide (10 μg)
[21] = Female PCK rats, HD, 4 weeks of treatment, Octreotide (100 μg)
[22] = Male PCK rats, Group I, 4 weeks of treatment, Octreotide (10 μg)
[23] = Male PCK rats, Group II, 8 weeks of treatment, Octreotide (10 μg)
[24] = Male PCK rats, Group III, 12 weeks of treatment, Octreotide (10 μg)
[25] = Male PCK rats, Group IV, 16 weeks of treatment, Octreotide (10 μg)
[26] = Male PCK rats, HD, 4 weeks of treatment, Octreotide (100 μg)
[27] = octreotide 10 μg/kg, 4 to 16 weeks
[28] = octreotide-treated vs saline-treated PCK rats

C[C@@H](O)[C@@H]1NC(=O)[C@H](CCCCN)NC(=O)[C@@H](Cc2c[nH]c3ccccc23)NC(=O)[C@H](Cc2ccccc2)NC(=O)[C@@H](NC(=O)[C@H](N)Cc2ccccc2)CSSC[C@@H](C(=O)N[C@H](CO)[C@@H](C)O)NC1=O [Octreotide, octreotide]
Alkaline Phosphatase (PCK rats [1]; [6]): 238.5 ± 23.5 U/L
Aspartate Aminotransferase (PCK rats [1]; [6]): 135.0 ± 11.4 U/L
Bilirubin Direct (PCK rats [1]; [6]): 0.1 mg/dL
Bilirubin Total (PCK rats [1]; [6]): 0.2 mg/dL
Blood Urea Nitrogen (PCK rats [1]; [6]): 16.7 ± 0.3 mg/dL
Creatinine (PCK rats [1]; [6]): 0.55 ± 0.06 mg/dL
Protein total (PCK rats [1]; [6]): 5.70 ± 0.20 g/dL
Aspartate Aminotransferase (PCK rats [1]; [7]): 211.2 ± 48.4 U/L
Bilirubin Direct (PCK rats [1]; [7]): 0.1 mg/dL
Bilirubin Total (PCK rats [1]; [7]): 0.23 ± 0.03 mg/dL
Blood Urea Nitrogen (PCK rats [1]; [7]): 15.7 ± 1.2 mg/dL
Creatinine (PCK rats [1]; [7]): 0.57 ± 0.03 mg/dL
Protein total (PCK rats [1]; [7]): 5.53 ± 0.18 g/dL
Alkaline Phosphatase (PCK rats [1]; [8]): 237.0 ± 22.1 U/L
Aspartate Aminotransferase (PCK rats [1]; [8]): 207.5 ± 31.5 U/L
Bilirubin Direct (PCK rats [1]; [8]): 0.1 mg/dL
Bilirubin Total (PCK rats [1]; [8]): 0.2 mg/dL
Blood Urea Nitrogen (PCK rats [1]; [8]): 20.5 ± 0.5 mg/dL
Creatinine (PCK rats [1]; [8]): 0.6 mg/dL
Protein total (PCK rats [1]; [8]): 5.2 ± 0.17 g/dL
Alkaline Phosphatase (PCK rats [1]; [9]): 156.7 ± 4.3 U/L
Aspartate Aminotransferase (PCK rats [1]; [9]): 165.0 ± 36.46 U/L
Bilirubin Direct (PCK rats [1]; [9]): 0.1 mg/dL
Bilirubin Total (PCK rats [1]; [9]): 0.2 mg/dL
Blood Urea Nitrogen (PCK rats [1]; [9]): 20.5 ± 0.9 mg/dL
Creatinine (PCK rats [1]; [9]): 0.63 ± 0.03 mg/dL
Protein total (PCK rats [1]; [9]): 5.6 ± 0.08 g/dL
Alkaline Phosphatase (PCK rats [1]; [10]): 292.5 ± 14.3 U/L
Aspartate Aminotransferase (PCK rats [1]; [10]): 197.4 ± 25.7 U/L
Bilirubin Direct (PCK rats [1]; [10]): 0.1 mg/dL
Bilirubin Total (PCK rats [1]; [10]): 0.2 mg/dL
Blood Urea Nitrogen (PCK rats [1]; [10]): 17.0 ± 2.6 mg/dL
Creatinine (PCK rats [1]; [10]): 0.6 mg/dL
Protein total (PCK rats [1]; [10]): 5.3 ± 0.12 g/dL
Alkaline Phosphatase (PCK rats [1]; [11]): 264.5 ± 41.5 U/L
Aspartate Aminotransferase (PCK rats [1]; [11]): 212.7 ± 41.1 U/L
Bilirubin Direct (PCK rats [1]; [11]): 0.1 mg/dL
Bilirubin Total (PCK rats [1]; [11]): 0.17 ± 0.0 mg/dL
Blood Urea Nitrogen (PCK rats [1]; [11]): 16.0 ± 0.6 mg/dL
Creatinine (PCK rats [1]; [11]): 0.49 ± 0.04 mg/dL
Protein total (PCK rats [1]; [11]): 5.74 ± 0.19 g/dL
Alkaline Phosphatase (PCK rats [1]; [12]): 305.3 ± 20.4 U/L
Aspartate Aminotransferase (PCK rats [1]; [12]): 188.1 ± 20.6 U/L
Bilirubin Direct (PCK rats [1]; [12]): 0.1 mg/dL
Bilirubin Total (PCK rats [1]; [12]): 0.2 mg/dL
Blood Urea Nitrogen (PCK rats [1]; [12]): 18.3 ± 1.6 mg/dL
Creatinine (PCK rats [1]; [12]): 0.6 mg/dL
Protein total (PCK rats [1]; [12]): 5.22 ± 1.4 g/dL
Alkaline Phosphatase (PCK rats [1]; [13]): 210.5 ± 24.5 U/L
Aspartate Aminotransferase (PCK rats [1]; [13]): 181.7 ± 39.2 U/L
Bilirubin Direct (PCK rats [1]; [13]): 0.1 mg/dL
Bilirubin Total (PCK rats [1]; [13]): 0.3 mg/dL
Blood Urea Nitrogen (PCK rats [1]; [13]): 21.5 ± 1.5 mg/dL
Creatinine (PCK rats [1]; [13]): 0.6 mg/dL
Protein total (PCK rats [1]; [13]): 5.2 ± 0.03 g/dL
Alkaline Phosphatase (PCK rats [1]; [14]): 189.5 ± 18.5 U/L
Aspartate Aminotransferase (PCK rats [1]; [14]): 145.1 ± 49.51 U/L
Bilirubin Direct (PCK rats [1]; [14]): 0.1 mg/dL
Bilirubin Total (PCK rats [1]; [14]): 0.2 mg/dL
Blood Urea Nitrogen (PCK rats [1]; [14]): 20.3 ± 0.8 mg/dL
Creatinine (PCK rats [1]; [14]): 0.65 ± 0.05 mg/dL
Protein total (PCK rats [1]; [14]): 5.4 ± 0.35 g/dL
Alkaline Phosphatase (PCK rats [1]; [15]): 276.8 ± 31.2 U/L
Aspartate Aminotransferase (PCK rats [1]; [15]): 191.0 ± 24.4 U/L
Bilirubin Direct (PCK rats [1]; [15]): 0.1 mg/dL
Bilirubin Total (PCK rats [1]; [15]): 0.2 mg/dL
Blood Urea Nitrogen (PCK rats [1]; [15]): 17.1 ± 1.2 mg/dL
Creatinine (PCK rats [1]; [15]): 0.5 mg/dL
Protein total (PCK rats [1]; [15]): 5.4 ± 0.15 g/dL
hepatic or renal function (PCK rats [1]; any dose administered (10 or 100 μg/kg ip every 12 hours)): did not affect
effect on liver and kidney weights at higher dose (PCK rats [2]; [16]): more significant effect
Kidney weight (PCK rats [2]; [17]): 1.31 ± 0.04 % body weight
Kidney weight, decrease (↓) vs saline (PCK rats [2]; [17]): (↓11.8%)
Liver weight (PCK rats [2]; [17]): 5.34 ± 00.24 % body weight
Liver weight, decrease (↓) vs saline (PCK rats [2]; [17]): (↓10.5%)
Kidney weight (PCK rats [2]; [18]): 1.35 ± 0.06 % body weight
Kidney weight, decrease (↓) vs saline (PCK rats [2]; [18]): (↓15.0%)
Liver weight (PCK rats [2]; [18]): 5.37 ± 0.22 % body weight
Liver weight, decrease (↓) vs saline (PCK rats [2]; [18]): (↓15.8%)
Kidney weight (PCK rats [2]; [19]): 1.42 ± 0.11 % body weight
Kidney weight, decrease (↓) vs saline (PCK rats [2]; [19]): (↓17.9%)
Liver weight (PCK rats [2]; [19]): 5.43 ± 0.24 % body weight
Liver weight, decrease (↓) vs saline (PCK rats [2]; [19]): (↓18.8%)
Kidney weight (PCK rats [2]; [20]): 1.48 ± 0.13 % body weight
Kidney weight, decrease (↓) vs saline (PCK rats [2]; [20]): (↓20.6%)
Liver weight (PCK rats [2]; [20]): 5.62 ± 0.25 % body weight
Liver weight, decrease (↓) vs saline (PCK rats [2]; [20]): (↓21.9%)
Kidney weight (PCK rats [2]; [21]): 1.14 ± 0.07 % body weight
Kidney weight, decrease (↓) vs saline (PCK rats [2]; [21]): (↓18.6%)
Liver weight (PCK rats [2]; [21]): 4.7 ± 0.35 % body weight
Liver weight, decrease (↓) vs saline (PCK rats [2]; [21]): (↓19.1%)
Kidney weight (PCK rats [2]; [22]): 1.43 ± 0.04 % body weight
Kidney weight, decrease (↓) vs saline (PCK rats [2]; [22]): (↓11.2%)
Liver weight (PCK rats [2]; [22]): 4.76 ± 0.07 % body weight
Liver weight, decrease (↓) vs saline (PCK rats [2]; [22]): (↓9.0%)
Kidney weight (PCK rats [2]; [23]): 1.52 ± 0.11 % body weight
Kidney weight, decrease (↓) vs saline (PCK rats [2]; [23]): (↓14.6%)
Liver weight (PCK rats [2]; [23]): 5.24 ± 0.57 % body weight
Liver weight, decrease (↓) vs saline (PCK rats [2]; [23]): (↓12.8%)
Kidney weight (PCK rats [2]; [24]): 1.53 ± 0.15 % body weight
Kidney weight, decrease (↓) vs saline (PCK rats [2]; [24]): (↓16.8%)
Liver weight (PCK rats [2]; [24]): 5.31 ± 0.46 % body weight
Liver weight, decrease (↓) vs saline (PCK rats [2]; [24]): (↓17.2%)
Kidney weight (PCK rats [2]; [25]): 1.57 ± 0.12 % body weight
Kidney weight, decrease (↓) vs saline (PCK rats [2]; [25]): (↓18.9%)
Liver weight (PCK rats [2]; [25]): 5.64 ± 0.14 % body weight
Liver weight, decrease (↓) vs saline (PCK rats [2]; [25]): (↓19.9%)
Kidney weight (PCK rats [2]; [26]): 1.27 ± 0.13 % body weight
Kidney weight, decrease (↓) vs saline (PCK rats [2]; [26]): (↓19.3%)
Liver weight (PCK rats [2]; [26]): 4.18 ± 0.11 % body weight
Liver weight, decrease (↓) vs saline (PCK rats [2]; [26]): (↓15.1%)
liver and kidney weights vs saline (PCK rats [2]; each group studied): significantly decreased
body weight vs saline-treated (PCK rats [2]; male or female PCK rats): No differences
cystic volume and fibrosis score in liver and kidney at higher dose (PCK rats [3]; higher dose (100 μg/kg, 4 weeks)): even more significant reduction
hepatic fibrosis (PCK rats [3]; octreotide 10 μg/kg): significant reduction
renal fibrosis (PCK rats [3]; octreotide 10 μg/kg): significant reduction
cystic volume in kidney (PCK rats [3]; [27]): decreased consistently and progressively
cystic volume in liver (PCK rats [3]; [27]): decreased consistently and progressively
binding affinity (SSTR3): low affinity
binding affinity [4]: high affinity
cAMP concentration in bile duct and serum at higher dose [5, 16]: to an even greater extent
cAMP levels in freshly isolated bile ducts [5, 28]: lowered
cAMP levels in serum [5, 28]: lowered
